Results taken from patent US20260191793A1, “HBV SPECIFIC EXOSOMES AND USES THEREOF” (priority 2022, published 2026).

Tested on: HBV replication in HepG2/2.2.15 cells
Assay: Antiviral efficiency of synthetic gRNA/Cas9 RNPs in HepG2/2.2.15 cells (HBsAg/HBeAg ELISA, HBV mRNA and HBV DNA real-time PCR)
Format: cell-based, Hepatitis B virus (HBV)
Parameters: reduction in HBsAg expression / reduction of HBV mRNA expression: concentration or dose not given beside the values
Conditions: for reduction of HBV mRNA expression: HepG2/2.2.15 cells, real-time PCR, vs gRNAc
Procedure: The HepG2.2.15 Human Hepatoblastoma cell line (Cat #SCC249, MilliporeSigma, Burlington, MA) is a traditional HBV cellular model that is widely used for studying HBV infection and drug development. HepG2.2.15 cells display constitutive HBV RNA transcription and DNA replication, but a lesser detection of cccDNA by Southern blot and PCR detection. The HepG2/2.2.15 cells were cultured in DMEM (Cat #MT10013CV, Fisher Scientific, Waltham, MA) supplemented with 10% Fetal bovine serum, penicillin, and streptomycin (50 ug/ml each; Fisher Scientific) and maintained at 37° C. and 5% CO2 atmosphere. The Amaxa Cell Line Nucleofector Kit V (Lonza VCA-1003) was used to deliver gRNA/Cas9 into HepG2/2.2.15 cells stably expressing HBV. For each transfection, 160 μM gRNA and 160 μM tracrRNA were first incubated at 37° C. for 30 minutes, followed by adding 80 μM Cas9 protein and incubating at 37° C. for 15 minutes. Approximately 40 μM of the gRNA/Cas9 complex was transfected into HepG2/2.2.15 cells (5×10^5) following the manufacturer's instructions. After 72 hours, the culture supernatants were harvested to measure HBV antigens by ELISA, and the cell pellets were used to determine HBV DNA or mRNA levels by real-time-PCR.
The levels of HBsAg and HBeAg in the supernatants of cell cultures were determined by ELISA (Cat #KA0286 and NBP2-600029, Novus Biologicals, Littleton, CO) according to the manufacturer's protocol. The optical density of antigen levels was measured at 450 nm using a microplate spectrophotometer. The samples were run in triplicate, and the experiments were repeated at least three times.
Total RNA was extracted from the cell pellets by the RNeasy Mini kit (Cat #74104, QIAGEN, Germantown, MD), and 1 μg RNA was converted to cDNA using the Applied Biosystems High-Capacity cDNA Reverse Transcription Kit (Cat #43-688-14, ThermoFisher, Waltham, MA). Quantitative real-time PCR (real-time-qPCR) was performed using iTaq Universal SYBR Green Supermix (Cat #1725124, Bio-Rad, Hercules, CA). The PCR primers were: HBV mRNA forward, 5′-[…]-3′ (SEQ ID NO: 52), reverse, 5′-[…]-3′ (SEQ ID NO: 53); HBV pgRNA forward 5′-[…]-3′ (SEQ ID NO: 54), reverse 5′-[…]-3′ (SEQ ID NO: 55); and GAPDH forward 5′-[…]-3′ (SEQ ID NO: 56), reverse 5′-[…]-3′ (SEQ ID NO: 57). The gene expression levels were determined by the […] method and values were normalized to GAPDH expression as an internal control.
Total and protein-free HBV DNAs were extracted from whole cell lysate using the Hirt DNA method according to a previously published protocol. For HBV cccDNA analysis, the protein-free DNA was treated with 10 units of T5 exonuclease (NEB) at 37° C. for 30 min, followed by 95° C. for 5 min, and diluted 4-fold with nuclease-free water. Next, the cccDNA was cleaned with a DNA clean and concentrator kit (ZYMO Research, Irvine, CA) and used for PCR. HBV total DNA and cccDNA were analyzed by real-time PCR using a TaqMan PCR assay. The primers and probe used to amplify HBV total DNA were: HBV total DNA forward: 5′-[…]-3′ (SEQ ID NO: 58), reverse 5′-[…]-3′ (SEQ ID NO: 59), and internal probe: 5′-FAM-[…]-TAMRA-3′ (SEQ ID NO: 60). The primers and probe used to amplify HBV cccDNA (Genotype D, subtype ayw) were: forward: 5′-[…]-3′ (SEQ ID NO: 61), reverse 5′-[…]-3′ (SEQ ID NO: 62), and internal probe 5′-FAM-[…]-TAMRA-3′ (SEQ ID NO: 63). The PCR reactions were performed in 20 μl volumes and contained 2 μl DNA. The PCR conditions were: 95° C. for 10 min, followed by 45 cycles of 95° C. for 15 s and 64° C. for 30 s. The DNA levels were determined by the […] method and values were normalized to the control group.
Because the hepatoma cell line HepG2/2.2.15 is a traditional HBV cellular model used to test the efficacy and cytotoxicity of anti-HBV drugs, the synthetic gRNA/Cas9 RNPs were tested for their antiviral efficiency in HepG2/2.2.15 cells. […]

Sequence	reduction in HBsAg expression (HepG2/2.2.15 supernatant, 3 days after nucleofection, ELISA, vs scrambled gRNAc)	reduction of HBV mRNA expression
GAAGCGAAGTGCACACGGTCNGG (guide GAAGCGAAGUGCACACGGUCNGG; complexed with Cas9 as ribonucleoprotein, chemistry not given here) [gRNA8, tested as synthetic gRNA/Cas9 RNP]	50%	–
GATTGAGACCTTCGTCTGCGNGG (guide GAUUGAGACCUUCGUCUGCGNGG; complexed with Cas9 as ribonucleoprotein, chemistry not given here) [gRNA1, tested as synthetic gRNA/Cas9 RNP]	–	~ 50%
GTCGCAGAAGATCTCAATCTNGG (guide GUCGCAGAAGAUCUCAAUCUNGG; complexed with Cas9 as ribonucleoprotein, chemistry not given here) [gRNA3, tested as synthetic gRNA/Cas9 RNP]	–	~ 50%
